Measured values from article PMC3468400, “Pharmacokinetic profiles of artesunate following multiple intravenous doses of 2, 4, and 8 mg/kg in healthy volunteers: Phase 1b study” (Malaria Journal, 2012).
Read-outs that look alike come from different tables or passages of the source.

Assays:
[1] = system: asexual blood stage parasites; conditions: cited from earlier work
[2] = Pharmacokinetics of dihydroartemisinin (DHA), active metabolite, in plasma after multiple intravenous AS doses, non-compartmental analysis; format: in vivo, human; conditions: for Total AUCD1-D3: DHA, days 1-3; for AUC: Mean AUC of DHA, range over doses, AS 2-8 mg/kg iv
Description: The study was a double blind, ascending multiple doses, alternating group, safety, tolerance, and PK study. […] When the injection was completed, the study nurse recorded tolerance of injection to include both inspection of site and subjects’ responses. Subjects were provided a light lunch at approximately 4 hours after dosing. Normal activities, excluding strenuous exercise, were permitted four hours after dosing. […] During the multiple-dose period, samples were collected immediately before morning dose on days 2 and 3 for additional trough values. All the samples were stored at −80 °C until shipment and were then shipped to a bio-analytical GLP laboratory, Midwest Research Institute (MRI), in Kansas City, MO, USA. The human use protocol numbers for the Phase 1 trial are: USUHS #G183RW; WRIAR #1128; and HSRRB #A-13276.
The analytes were extracted from human plasma with ethyl acetate. […] The reconstituted extracts were analysed on a Micromass Quattro II Mass Spectrometer in the positive ion electrospray ionization (+ESI) mode. […] This method employed a Varian Pursuit C18 column (150 x 2.0 mm, 5-μm particle size) and a gradient elution with the following mobile phases: A: 10 mM ammonium acetate in water with 1% formic acid and B: 10 mM ammonium acetate in acetonitrile with 1% formic acid, for the chromatographic separation.
Calibration standards and QC samples were analysed to evaluate the performance of the assay.
The maximum concentration in plasma for each subject was read directly from the experimental values. […] The values of the following PK parameters were derived by a non-compartmental method: the half-life (t½); mean residence time (MRT); the AUC from time zero to the last sampling time (AUCt); the AUC from time zero extrapolated to infinity (AUCinf); relative total systemic clearance (CL/F_obs); and volume of distribution during steady state (Vss/F_obs). A drug accumulation index was estimated from the AUC value on day 3 divided by the AUC value on day 1 (first multiple dose administration).

[3] = system: severe falciparum malaria; conditions: SEAQUAMAT, severe malaria patients, intravenous treatment; cited from earlier work
[4] = human, plasma, intravenous, all days and dose cohorts

Q: What does the source list for `C[C@H]1[C@@H](O)O[C@@H]2O[C@@]3(C)CC[C@H]4[C@H](C)CC[C@@H]1[C@@]24OO3` [DHA, dihydroartemisinin]?
A: time to complete inhibition of parasite growth [1]: within two to four hours; Mean peak concentrations of DHA over the three days, range ([2]; 4 mg/kg cohort): 2923 to 3018 ng/mL; Mean peak concentrations of DHA over the three days, range ([2]; 8 mg/kg cohort): 5762 to 6056 ng/mL; Total AUCD1-D3 ([2]; AS 2 mg/kg iv daily for 3 days, mean (CV%), n = 6): 6520 (18); Total AUCD1-D3 ([2]; AS 4 mg/kg iv daily for 3 days, mean (CV%), n = 6): 12092 (20); Total AUCD1-D3 ([2]; AS 8 mg/kg iv daily for 3 days, mean (CV%), n = 6): 27635 (34); time DHA detected in plasma ([2]; after each short-term infusion of AS, all volunteers): until six hours; AUC(0-inf) ([2]; human, plasma, intravenous, 2 mg/kg, Mean AUCinf of DHA over three days, range, 2 mg/kg cohort): 2020 to 2380 ng·h/mL; AUC(0-inf) ([2]; human, plasma, intravenous, 4 mg/kg, Mean AUCinf of DHA over three days, range, 4 mg/kg cohort): 3740 to 4390 ng·h/mL; AUC(0-inf) ([2]; human, plasma, intravenous, 8 mg/kg, Mean AUCinf of DHA over three days, range, 8 mg/kg cohort): 8730 to 9700 ng·h/mL; CL/F [2, 4]: 14.6 to 19.4 mL/min/kg; Tmax [2, 4]: 0.16 to 0.29 h; Cmax ([2]; human, plasma, iv, 2 mg/kg): 1740 ng/mL; MRT ([2]; human, plasma, iv, 2 mg/kg, Day 1, DHA after AS 2 mg/kg iv daily for 3 days, 2 min infusion, mean (CV%), n = 6, NCA): 1.41 h; AUC(0-inf) ([2]; human, plasma, iv, 2 mg/kg, Day 1, DHA after AS 2 mg/kg iv daily for 3 days, 2 min infusion, mean (CV%), n = 6, NCA, read-out: AUCinf): 2120 ng·h/mL; half-life ([2]; human, plasma, iv, 2 mg/kg, Day 1, DHA after AS 2 mg/kg iv daily for 3 days, 2 min infusion, mean (CV%), n = 6, NCA, read-out: t1/2 elimination (converted)): 1.19 h; MRT ([2]; human, plasma, iv, 2 mg/kg, Day 3, DHA after AS 2 mg/kg iv daily for 3 days, 2 min infusion, mean (CV%), n = 6, NCA): 1.39 h; Tmax ([2]; human, plasma, iv, 2 mg/kg, read-out: Tmax): 0.29 h; Cmax ([2]; human, plasma, iv, 4 mg/kg): 3020 ng/mL; MRT ([2]; human, plasma, iv, 4 mg/kg, Day 1, DHA after AS 4 mg/kg iv daily for 3 days, 2 min infusion, mean (CV%), n = 6, NCA): 1.91 h; AUC(0-inf) ([2]; human, plasma, iv, 4 mg/kg, Day 1, DHA after AS 4 mg/kg iv daily for 3 days, 2 min infusion, mean (CV%), n = 6, NCA, read-out: AUCinf): 4390 ng·h/mL; half-life ([2]; human, plasma, iv, 4 mg/kg, Day 1, DHA after AS 4 mg/kg iv daily for 3 days, 2 min infusion, mean (CV%), n = 6, NCA, read-out: t1/2 elimination (converted)): 1.74 h; MRT ([2]; human, plasma, iv, 4 mg/kg, Day 3, DHA after AS 4 mg/kg iv daily for 3 days, 2 min infusion, mean (CV%), n = 6, NCA): 1.57 h; AUC(0-inf) ([2]; human, plasma, iv, 4 mg/kg, Day 3, DHA after AS 4 mg/kg iv daily for 3 days, 2 min infusion, mean (CV%), n = 6, NCA, read-out: AUCinf): 3960 ng·h/mL; half-life ([2]; human, plasma, iv, 4 mg/kg, Day 3, DHA after AS 4 mg/kg iv daily for 3 days, 2 min infusion, mean (CV%), n = 6, NCA, read-out: t1/2 elimination (converted)): 1.24 h; Tmax ([2]; human, plasma, iv, 4 mg/kg, read-out: Tmax): 0.25 h; Cmax ([2]; human, plasma, iv, 8 mg/kg): 6060 ng/mL; MRT ([2]; human, plasma, iv, 8 mg/kg, Day 1, DHA after AS 8 mg/kg iv daily for 3 days, 2 min infusion, mean (CV%), n = 6, NCA): 1.81 h; AUC(0-inf) ([2]; human, plasma, iv, 8 mg/kg, Day 1, DHA after AS 8 mg/kg iv daily for 3 days, 2 min infusion, mean (CV%), n = 6, NCA, read-out: AUCinf): 9700 ng·h/mL; half-life ([2]; human, plasma, iv, 8 mg/kg, Day 1, DHA after AS 8 mg/kg iv daily for 3 days, 2 min infusion, mean (CV%), n = 6, NCA, read-out: t1/2 elimination (converted)): 1.42 h; MRT ([2]; human, plasma, iv, 8 mg/kg, Day 3, DHA after AS 8 mg/kg iv daily for 3 days, 2 min infusion, mean (CV%), n = 6, NCA): 1.78 h; AUC(0-inf) ([2]; human, plasma, iv, 8 mg/kg, Day 3, DHA after AS 8 mg/kg iv daily for 3 days, 2 min infusion, mean (CV%), n = 6, NCA, read-out: AUCinf): 9200 ng·h/mL; half-life ([2]; human, plasma, iv, 8 mg/kg, Day 3, DHA after AS 8 mg/kg iv daily for 3 days, 2 min infusion, mean (CV%), n = 6, NCA, read-out: t1/2 elimination (converted)): 1.34 h; half-life ([2]; human, plasma, iv, 8 mg/kg, mean elimination half-life of DHA, range, range of means over three days and AS 2, 4, 8 mg/kg iv doses): 1.23 to 1.63 h; Tmax ([2]; human, plasma, iv, 8 mg/kg, read-out: Tmax): 0.25 h; AUC ([2]; human, plasma, iv, day 1): 2120 to 9700 ng·h/mL; AUC ([2]; human, plasma, iv, day 3): 2380 to 9200 ng·h/mL; mean elimination half-life of DHA, range ([2]; range of means over three days and AS 2, 4, 8 mg/kg iv doses): 1.19 to 1.91 h

Q: With `C=C[C@H]1C[N@@]2CC[C@H]1C[C@H]2[C@H](O)c1ccnc2ccc(OC)cc12` [quinine] as the compound, how does the mortality rate [3] read?
A: 22%
